Patent publication US20240131044A1, “METHOD FOR TREATING CANCER” (M.T.3, Inc., priority 2022, published 2024)

How the values were obtained:
[1] = test system: Melanoma developing cells (CML6M); assay: Colony formation, survival fraction of canine melanoma cells; format: cell-based
Experimental: (§1) An anti-cancer agent and a pharmaceutical composition were administered to test cells and then the cells were cultured. Then, after colonies were formed, the number of colonies was counted. Here, samples in which the concentration of the anti-cancer agent to be administered was varied were prepared, and in each sample, the survival fraction of the cells compared with the case where cells were cultured without administration of the pharmaceutical composition was measured. Regarding the type of anti-cancer agent to be administered, a predetermined anti-cancer agent was selected depending on the type of administration target cells. Note that cells that were cultured without administration of the pharmaceutical composition and the anti-cancer agent were used as a control. Hereinafter, these steps will be described.
(§2) Here, CHO cells, V79 cells, and canine-derived cancer cells were prepared as the test cells. The CHO cells are ovarian cells derived from Chinese hamsters, and the V79 cells are fibroblasts derived from the lungs of Chinese hamsters. Melanoma developing cells (CML6M) and soft tissue sarcoma developing cells (STSA-1) were used as the cancer cells.
(§3) The cancer cells were prepared by being cultured using an αMEM culture medium supplemented with 10% serum and an antibiotic. The cancer cells were prepared such that, when the concentration of the cells in a cell suspension obtained by subjecting the cultured cells to PBS washing and trypsin treatment, the concentration was within a predetermined concentration range. Here, the predetermined concentration ranges were 300 cells/well, 100 to 150 cells/well, and 500 to 1000 cells/well for the CHO/V79 cells, the melanoma cells, and the soft tissue sarcoma cells, respectively.
(§4) Next, the cancer cells were cultured in culture environments to which the anti-cancer agent was added at various concentrations, and were then allowed to form colonies. The culture periods for colony formation were a week, 10 days, and 14 days for CHO and V79, melanoma, and soft tissue sarcoma, respectively. After colonies were formed, washing using a physiological saline solution, fixation using 100% ethanol, and staining using 0.1% crystal violet were performed, and then the number of colonies per well was counted under a microscope. Note that, here, the colony was defined as containing 50 or more cells. Moreover, mitomycin C, doxorubicin, bleomycin, camptothecin, etoposide, taxol, methyl methanesulfonate, and cisplatin were used as the anti-cancer agent.
(§5) A graph with the horizontal axis representing the concentration of the anti-cancer agent and the vertical axis representing the survival fraction was created by plotting the survival fraction measurement results relative to the SQAP administration amounts, and the effect of the addition of SQAP on the survival fraction was examined. Hereinafter, the results from each anti-cancer agent will be shown in a table and described.
Canine-derived melanoma cells and soft tissue sarcoma cells were used as the cells, and doxorubicin was used as the anti-cancer agent. […] Also, the concentration of the doxorubicin administered to the soft tissue sarcoma cells was set to 0 nM, 5 nM, 10 nM, and 15 nM. […] In Table 2, survival fractions in the case where SQAP was not administered are shown with a solid line, survival fractions in the case where SQAP was administered at a concentration of 10 μM are shown with a broken line, survival fractions in the case where SQAP was administered at a concentration of 20 μM are shown with a 1-dot chain line, and survival fractions in the case where SQAP was administered at a concentration of 30 μM are shown with a 2-dot chain line.
(§6) In the above examples, the anti-cancer agent and the pharmaceutical composition were administered to the test cells and then the cells were cultured. […]

[2] = test system: soft tissue sarcoma developing cells (STSA-1); assay: Colony formation, survival fraction of canine soft tissue sarcoma cells; format: cell-based
Experimental: as §1, §2, §3, §4, §5
Canine-derived melanoma cells and soft tissue sarcoma cells were used as the cells, and doxorubicin was used as the anti-cancer agent. The amount of the doxorubicin administered to the melanoma cell was set to 0 nM, 5 nM, 10 nM, 15 nM, 20 nM, and 25 nM. […] In Table 2, survival fractions in the case where SQAP was not administered are shown with a solid line, survival fractions in the case where SQAP was administered at a concentration of 10 μM are shown with a broken line, survival fractions in the case where SQAP was administered at a concentration of 20 μM are shown with a 1-dot chain line, and survival fractions in the case where SQAP was administered at a concentration of 30 μM are shown with a 2-dot chain line.
as §6

[3] = test system: V79 cells; assay: Colony formation, survival fraction of V79 cells; format: cell-based, Chinese hamsters
Experimental: as §1, §2, §3
as §4, with “Moreover, mitomycin C, doxorubicin, bleomycin, camptothecin, etoposide, taxol, methyl methanesulfonate, and cisplatin were used as the anti-cancer agent.” left out
as §5, with “described. […]” for “described.”
V79 cells were used as the cells, and cisplatin was used as the anti-cancer agent. The cisplatin was administered at concentrations of 0 μg/mL, 0.1 μg/mL, 0.2 μg/mL, 0.3 μg/mL, 0.4 μg/mL, and 0.5 μg/mL.
V79 cells were used as the cells, and camptothecin was used as the anti-cancer agent. The amount of the camptothecin was set to 0 nM, 5 nM, 10 nM, 15 nM, and 20 nM.
V79 cells were used as the cells, and mitomycin C was used as the anti-cancer agent. The amount of MMC was set to 0 nM, 100 nM, 200 nM, 300 nM, 400 nM, and 500 nM. […]
V79 cells were used as the cells, and taxol was used as the anti-cancer agent. The amount of the taxol was set to 0 nM, 10 nM, 20 nM, and 30 nM.
V79 cells were used as the cells, and MMS was used as the anti-cancer agent. The amount of the MMS was set to 0 μM, 10 μM, 20 μM, 30 μM, and 40 μM.
as §6

SMILES: CCCCCCCCCCCCCCCCCC(=O)OCCCO[C@H]1O[C@H](CS(=O)(=O)O)[C@@H](O)[C@H](O)[C@H]1O [SQAP, sulfoquinovosylacylpropanediol]
- survival fraction ([1]; melanoma cells, doxorubicin 15 nM + SQAP 10 μM): about 10%
- survival fraction ([1]; melanoma cells, doxorubicin 15 nM + SQAP 20 μM): about 3%
- survival fraction ([1]; melanoma cells, doxorubicin 15 nM + SQAP 30 μM): about 0.4%
- survival fraction ([1]; melanoma developing cells, SQAP 10 μM alone): about 90%
- survival fraction ([1]; melanoma developing cells, SQAP 20 μM alone): about 85%
- survival fraction ([1]; melanoma developing cells, SQAP 30 μM alone): about 60%
- survival fraction ([1]; melanoma developing cells, doxorubicin 10 μM + SQAP 10 μM (as restated in Example 10)): about 10%
- survival fraction ([1]; melanoma developing cells, doxorubicin 10 μM + SQAP 20 μM (as restated in Example 10)): about 3%
- survival fraction ([1]; melanoma developing cells, doxorubicin 10 μM + SQAP 30 μM (as restated in Example 10)): about 0.4%
- survival fraction ([2]; soft tissue sarcoma cells, doxorubicin 10 nM + SQAP 10 μM): about 2%
- survival fraction ([2]; soft tissue sarcoma cells, doxorubicin 10 nM + SQAP 20 μM): about 2%
- survival fraction ([2]; soft tissue sarcoma cells, doxorubicin 10 nM + SQAP 30 μM): about 0.7%
- survival fraction ([2]; soft tissue sarcoma developing cells, SQAP 10 μM alone): about 90%
- survival fraction ([2]; soft tissue sarcoma developing cells, SQAP 20 μM alone): about 75%
- survival fraction ([2]; soft tissue sarcoma developing cells, SQAP 30 μM alone): about 45%
- survival fraction ([2]; soft tissue sarcoma developing cells, doxorubicin 10 μM + SQAP 10 μM (as restated in Example 10)): about 2%
- survival fraction ([2]; soft tissue sarcoma developing cells, doxorubicin 10 μM + SQAP 20 μM (as restated in Example 10)): about 2%
- survival fraction ([2]; soft tissue sarcoma developing cells, doxorubicin 10 μM + SQAP 30 μM (as restated in Example 10)): about 0.7%
- survival fraction ([3]; MMS 40 μM + SQAP 10 μM): about 7%
- survival fraction ([3]; MMS 40 μM + SQAP 20 μM): less than 1%
- survival fraction ([3]; SQAP 10 μM alone): 10%
- survival fraction ([3]; SQAP 20 μM alone): 10%
- survival fraction of cells after culture, SQAP and anti-cancer agent in combination compared with SQAP alone ([3]; any anti-cancer agent of the examples): decreased
- survival fraction ([3]; bleomycin 15 nM + SQAP 10 μM): about 20%
- survival fraction ([3]; bleomycin 15 nM + SQAP 20 μM): about 2%
- survival fraction ([3]; camptothecin 20 nM + SQAP 10 μM): about 12%
- survival fraction ([3]; camptothecin 20 nM + SQAP 20 μM): about 3%
- survival fraction ([3]; cisplatin 0.3 μg/mL + SQAP 10 μM (b65 prints 1011M)): about 8%
- survival fraction ([3]; cisplatin 0.3 μg/mL + SQAP 20 μM (b65 prints 20 without unit)): about 5%
- survival fraction ([3]; etoposide 30 nM + SQAP 10 μM): about 9%
- survival fraction ([3]; etoposide 30 nM + SQAP 20 μM): about 8%
- survival fraction ([3]; mitomycin C 500 nM + SQAP 10 μM): about 2%
- survival fraction ([3]; mitomycin C 500 nM + SQAP 20 μM): about 1.8%
- survival fraction ([3]; taxol 30 nM + SQAP 10 μM): about 2%
- survival fraction ([3]; taxol 30 nM + SQAP 20 μM): about 2%
